Tested on: 186277-243-T-J2-PDC complex spheroid viability
Assay: Anticancer human tumor 186277-243-T-J2-PDC patient-derived colon adenocarcinoma cell line growth inhibition [GQUAD]
Details: for IC50: curve of first compound; for viability, T/C: stronger effect = lower value
In short: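 Viability of tumor cells grown as complex spheroids with endothelial and stromal cells, exposed to drug combinations. Top concentration at or near clinical Cmax (else 10 microM), diluted in half-log increments.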

[1] = second compound 0.0316 µM, first compound 0.0316 µM
[2] = second compound 0.0316 µM, first compound 0.1 µM
[3] = second compound 0.0316 µM, first compound 0.316 µM
[4] = second compound 0.0316 µM, first compound 1 µM
[5] = second compound 0.0316 µM, first compound 3.16 µM
[6] = second compound 0.0316 µM, first compound 10 µM
[7] = second compound 0.1 µM, first compound 0.0316 µM
[8] = second compound 0.1 µM, first compound 0.1 µM
[9] = second compound 0.1 µM, first compound 0.316 µM
[10] = second compound 0.1 µM, first compound 1 µM
[11] = second compound 0.1 µM, first compound 3.16 µM
[12] = second compound 0.1 µM, first compound 10 µM
[13] = second compound 0.316 µM, first compound 0.0316 µM
[14] = second compound 0.316 µM, first compound 0.1 µM
[15] = second compound 0.316 µM, first compound 0.316 µM
[16] = second compound 0.316 µM, first compound 1 µM
[17] = second compound 0.316 µM, first compound 3.16 µM
[18] = second compound 0.316 µM, first compound 10 µM
[19] = second compound 1 µM, first compound 0.0316 µM
[20] = second compound 1 µM, first compound 0.1 µM
[21] = second compound 1 µM, first compound 0.316 µM
[22] = second compound 1 µM, first compound 1 µM
[23] = second compound 1 µM, first compound 3.16 µM
[24] = second compound 1 µM, first compound 10 µM
[25] = second compound 3.16 µM, first compound 0.0316 µM
[26] = second compound 3.16 µM, first compound 0.1 µM
[27] = second compound 3.16 µM, first compound 0.316 µM
[28] = second compound 3.16 µM, first compound 1 µM
[29] = second compound 3.16 µM, first compound 3.16 µM
[30] = second compound 3.16 µM, first compound 10 µM
[31] = second compound 10 µM, first compound 0.0316 µM
[32] = second compound 10 µM, first compound 0.1 µM
[33] = second compound 10 µM, first compound 0.316 µM
[34] = second compound 10 µM, first compound 1 µM
[35] = second compound 10 µM, first compound 3.16 µM
[36] = second compound 10 µM, first compound 10 µM
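Wherever viability, T/C is given: 100% = DMSO vehicle control viability.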

C#Cc1c(F)ccc2cc(O)cc(-c3ncc4c(N5CC6CCC(C5)N6)nc(OCC56CCCN5CC(F)C6)nc4c3F)c12 (centres undefined) + CN(C)c1ccc(Nc2c3ccc(NC(=O)CCN4CCCC4)cc3nc3cc(NC(=O)CCN4CCCC4)ccc23)cc1
IC50 (second compound 0.0316 µM): 89.9 nM
IC50 (second compound 0.1 µM): 83.6 nM
IC50 (second compound 0.316 µM): 99.7 nM
IC50 (second compound 1 µM): 84.2 nM
IC50 (second compound 3.16 µM): 135 nM
IC50 (second compound 10 µM): 77 nM
viability, T/C [1]: 82%
viability, T/C [2]: 47.4%
viability, T/C [3]: 21.6%
viability, T/C [4]: 16.9%
viability, T/C [5]: 6.89%
viability, T/C [6]: 7.82%
viability, T/C [7]: 74.2%
viability, T/C [8]: 45.7%
viability, T/C [9]: 18.7%
viability, T/C [10]: 11.1%
viability, T/C [11]: 6.45%
viability, T/C [12]: 7.02%
viability, T/C [13]: 77%
viability, T/C [14]: 50.4%
viability, T/C [15]: 19.8%
viability, T/C [16]: 14.4%
viability, T/C [17]: 8.31%
viability, T/C [18]: 7.51%
viability, T/C [19]: 74.6%
viability, T/C [20]: 46.6%
viability, T/C [21]: 21.3%
viability, T/C [22]: 16.1%
viability, T/C [23]: 14.3%
viability, T/C [24]: 6.27%
viability, T/C [25]: 73.9%
viability, T/C [26]: 59.6%
viability, T/C [27]: 22.9%
viability, T/C [28]: 8.92%
viability, T/C [29]: 8.54%
viability, T/C [30]: 5.1%
viability, T/C [31]: 74.3%
viability, T/C [32]: 42.1%
viability, T/C [33]: 24.2%
viability, T/C [34]: 12.5%
viability, T/C [35]: 6.96%
viability, T/C [36]: 1.49%

CCCS(=O)(=O)Nc1ccc(F)c(C(=O)c2c[nH]c3ncc(-c4ccc(Cl)cc4)cc23)c1F + CN(C)c1ccc(Nc2c3ccc(NC(=O)CCN4CCCC4)cc3nc3cc(NC(=O)CCN4CCCC4)ccc23)cc1
IC50 (second compound 0.0316 µM): 5890 nM
IC50 (second compound 0.1 µM): 6440 nM
IC50 (second compound 0.316 µM): 6240 nM
IC50 (second compound 1 µM): 6270 nM
IC50 (second compound 3.16 µM): 6280 nM
IC50 (second compound 10 µM): 5820 nM
viability, T/C [1]: 97.2%
viability, T/C [2]: 101%
viability, T/C [3]: 90.2%
viability, T/C [4]: 78.8%
viability, T/C [5]: 77.9%
viability, T/C [6]: 30.3%
viability, T/C [7]: 95.2%
viability, T/C [8]: 81.4%
viability, T/C [9]: 83.6%
viability, T/C [10]: 84.6%
viability, T/C [11]: 95.8%
viability, T/C [12]: 26.2%
viability, T/C [13]: 89.1%
viability, T/C [14]: 102%
viability, T/C [15]: 86.3%
viability, T/C [16]: 87%
viability, T/C [17]: 82.7%
viability, T/C [18]: 27.7%
viability, T/C [19]: 90.3%
viability, T/C [20]: 93.1%
viability, T/C [21]: 84.4%
viability, T/C [22]: 98.9%
viability, T/C [23]: 83%
viability, T/C [24]: 26.7%
viability, T/C [25]: 92.2%
viability, T/C [26]: 105%
viability, T/C [27]: 86.5%
viability, T/C [28]: 90.4%
viability, T/C [29]: 82.5%
viability, T/C [30]: 28.4%
viability, T/C [31]: 96.9%
viability, T/C [32]: 91.1%
viability, T/C [33]: 97.9%
viability, T/C [34]: 87.7%
viability, T/C [35]: 82.3%
viability, T/C [36]: 22%

— PubChem BioAssay AID2060512 (Molecular Pharmacology Branch, DTP, NCI, 2025)
